Experimental findings from US9693992B2 (MannKind Corporation, priority 2010, dated 2017) are described below.

SMILES strings stand for the structures. A value given as a limit tells only on which side of the number the result lay.

IRE-1α, sequence (O75460 19-977): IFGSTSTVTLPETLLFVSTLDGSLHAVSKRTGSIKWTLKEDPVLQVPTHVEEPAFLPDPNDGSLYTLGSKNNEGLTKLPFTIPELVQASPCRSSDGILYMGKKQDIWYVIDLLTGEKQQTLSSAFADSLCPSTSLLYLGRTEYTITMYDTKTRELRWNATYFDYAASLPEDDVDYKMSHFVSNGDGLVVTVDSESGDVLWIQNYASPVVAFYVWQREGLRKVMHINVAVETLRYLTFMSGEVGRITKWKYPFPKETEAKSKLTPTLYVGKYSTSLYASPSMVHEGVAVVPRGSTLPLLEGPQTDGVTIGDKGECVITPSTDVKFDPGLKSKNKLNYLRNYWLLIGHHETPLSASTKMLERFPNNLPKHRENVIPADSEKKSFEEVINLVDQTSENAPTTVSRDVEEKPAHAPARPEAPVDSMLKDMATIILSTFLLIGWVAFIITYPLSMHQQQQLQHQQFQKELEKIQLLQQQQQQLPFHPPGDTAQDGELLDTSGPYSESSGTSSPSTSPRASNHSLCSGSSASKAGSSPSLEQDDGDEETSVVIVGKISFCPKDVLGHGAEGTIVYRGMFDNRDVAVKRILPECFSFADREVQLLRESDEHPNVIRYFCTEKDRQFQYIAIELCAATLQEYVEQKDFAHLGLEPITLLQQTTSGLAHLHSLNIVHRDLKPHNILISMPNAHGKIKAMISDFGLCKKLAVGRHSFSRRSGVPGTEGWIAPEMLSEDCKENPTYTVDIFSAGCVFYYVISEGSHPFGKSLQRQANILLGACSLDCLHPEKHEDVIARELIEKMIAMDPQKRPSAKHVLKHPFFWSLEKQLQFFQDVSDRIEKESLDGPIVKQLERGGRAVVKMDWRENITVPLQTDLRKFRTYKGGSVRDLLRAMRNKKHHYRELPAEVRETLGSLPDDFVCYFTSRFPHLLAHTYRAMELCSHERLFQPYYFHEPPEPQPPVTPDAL

In this test the target is IRE-1α (Homo sapiens (Human), UniProt O75460). Description: Cellular EC50: endogenous XBP-1 splicing in myeloma cells (MM.1s, DTT stress, RT-PCR). Type of test: cell-based. Conditions: average cellular EC50, XBP-1 splicing in myeloma cells. On the procedure:
Human myeloma MM.1s cells are incubated with a compound for 1.25 hours before stressing the cells with 2 mM dithiothreitol (DTT). After an additional 45 minutes (2 hours total) with compound and DTT, the cells are harvested with TRIZOL® (a mono-phasic solution of phenol and guanidine isothiocyanate), and total RNA is prepared as directed by the manufacturer (Invitrogen). Human XBP-1 is amplified by RT-PCR with the following primers, which flank the 26 base unconventional intron excised by IRE-1α:
RT-PCR of unstressed (U) cells then generates the upper band. When cells are stressed (S) with the endoplasmic reticulum (ER) stressing agent DTT, IRE-1α is activated due to accumulating unfolded protein and the resulting RT-PCR product is 26 base pairs shorter.
Compounds which pass specificity assays are assayed for cellular EC50 using endogenous XBP-1 splicing in myeloma cells. XBP-1 is regulated through the excision of a 26 nucleotide intron from the XBP-1 mRNA by the highly specific endoribonuclease activity of IRE-1α. […] This splicing event is used to measure IRE-1α activity on XBP-1 mRNA in cells and tissues.
Briefly, compounds are incubated in the presence or absence of an ER stress agent (e.g., DTT), and the ratio of XBP-1u (unspliced) to XBP-1s (spliced) is quantified by RT-PCR. The ED50 is determined as the 50% XBP-1s to total XPB-1 levels.
With `Cc1c(-c2ccc(C(=O)NCCN3CCOCC3)cc2)c(=O)oc2c(C=O)c(O)ccc12` [Example 3], the EC50 was under 10 µM.

In turn, `CC(C)c1cc(=O)oc2c(C=O)c(O)ccc12` [Example 5] yielded an EC50 of under 10 µM.

For `O=Cc1c(O)ccc2cc(C(=O)O)c(=O)oc12` [Example 8], the EC50 was over 10 µM.

In the case of `Cc1c(-c2cccc(C(=O)N3CCN(C)CC3)c2)c(=O)oc2c(C=O)c(O)ccc12` [Example 10], the EC50 is under 10 µM.

In turn, `Cc1c(-c2cccc(C(=O)NCCN3CCOCC3)c2)c(=O)oc2c(C=O)c(O)ccc12` [Example 11] displayed an EC50 of under 10 µM.

Turning to `Cc1c(-c2ccc(C(=O)N3CCOCC3)cc2)c(=O)oc2c(C=O)c(O)ccc12` [Example 12], the EC50 is under 10 µM.

`Cc1c(-c2ccc(N3CCN(C)CC3)nc2)c(=O)oc2c(C=O)c(O)ccc12` [Example 14]: the EC50 is under 10 µM.

Take `Cc1c(CCC(=O)N2CCN(C)CC2)c(=O)oc2c(C=O)c(O)ccc12` [Example 15]: the EC50 was under 10 µM.

In the case of `Cc1c(-c2ccc(C(=O)N(C)C)cc2)c(=O)oc2c(C=O)c(O)ccc12` [Example 17], the half-maximal effective concentration (EC50) was under 10 µM.

The molecule `Cc1c(-c2cccc(C(=O)N(C)C)c2)c(=O)oc2c(C=O)c(O)ccc12` [Example 20] yielded a concentration for a half-maximal effect (EC50) of over 10 µM.

With `Cc1cc(=O)oc2c(C=O)c(O)c(Cl)cc12` [Example 22], the EC50 is under 10 µM.

`O=Cc1c(O)ccc2c1CCN(Cc1ccccc1)C2` [Example 28]: the half-maximal effective concentration (EC50) was over 10 µM.

`CN1CCN(C(=O)c2cnc(N3CCc4c(ccc(O)c4C=O)C3)s2)CC1` [Example 33] displayed an EC50 of over 10 µM.

For `Cc1nc(N2CCc3c(ccc(O)c3C=O)C2)sc1C(=O)NC1CCNCC1` [Example 35], the EC50 was over 10 µM.

`Cc1nc(N2CCc3c(ccc(O)c3C=O)C2)sc1C(=O)NC1CCN(C)CC1` [Example 36]: the EC50 is over 10 µM.

For the molecule `Cc1nc(N2CCc3c(ccc(O)c3C=O)C2)sc1C(=O)NCCN1CCOCC1` [Example 37], the EC50 was over 10 µM.

`CN1CCN(c2ncc(C(=O)N3CCc4c(ccc(O)c4C=O)C3)s2)CC1` [Example 38] gave an EC50 of over 10 µM.

For `CCc1cc2c(=O)c(-c3nc(C)cs3)coc2c(C=O)c1O` [Example 39], the EC50 was over 10 µM.

Consider `O=Cc1c(O)ccc2c(=O)c(-c3cnn(-c4ccccc4)c3)coc12` [Example 40], for which the EC50 is over 10 µM.

In turn, `CN1CCN(C(=O)c2ccc(-c3ccc4c(C=O)c(O)ccc4n3)cc2)CC1` [Example 41] gave an EC50 of under 10 µM.

In turn, `CN1CCN(C(=O)c2cccc(-c3ccc4c(C=O)c(O)ccc4n3)c2)CC1` [Example 42] displayed an EC50 of under 10 µM.

`O=Cc1c(O)ccc2nc(-c3ccc(C(=O)N4CCOCC4)cc3)ccc12` [Example 44] returned an EC50 of under 10 µM.

`O=Cc1c(O)ccc2nc(-c3ccc(C(=O)NCCN4CCOCC4)cc3)ccc12` [Example 45]: the EC50 was under 10 µM.

`O=Cc1c(O)ccc2nc(-c3cccc(C(=O)NCCN4CCOCC4)c3)ccc12` [Example 46] had an EC50 of under 10 µM.

As to `O=Cc1c(O)ccc2nc(SCC(=O)O)[nH]c12` [Example 63], the EC50 was over 10 µM.

In the case of `O=Cc1c(O)ccc2nc(-c3cccc(C(=O)O)c3)[nH]c12` [Example 64], the concentration giving a half-maximal response (EC50) was over 10 µM.

Take `COC(=O)c1cccc(-c2nc3ccc(O)c(C=O)c3[nH]2)c1` [Example 65]: the EC50 is under 10 µM.

`Cc1c(-c2ccc(C(=O)N3CCOCC3)cc2)c(=O)oc2c(C=O)c(O)c(Cl)cc12` [Example 67] had an EC50 of over 10 µM.

The molecule `CCOC(=O)c1sc(-c2cc3ccc(O)c(C=O)c3oc2=O)nc1C` [Example 68] had an EC50 of under 10 µM.

In the case of `Cc1c(CC(=O)O)c(=O)oc2c(C=O)c(O)ccc12` [Example 70], the EC50 is over 10 µM.

`Cc1oc2c(C=O)c(O)ccc2c(=O)c1CCC(=O)N1CCN(C)CC1` [Example 88] showed a half-maximal effective concentration (EC50) of over 10 µM.

Regarding `COc1cc2c(=O)c(CCC(=O)NCCN3CCOCC3)c(C)oc2c(C=O)c1O` [Example 93], the EC50 is over 10 µM.

`COc1cc2c(=O)c(CCC(=O)N3CCN(C)CC3)c(C)oc2c(C=O)c1O` [Example 94]: the EC50 was over 10 µM.

With `CCOC(=O)c1cnc(-c2cc3ccc(O)c(C=O)c3oc2=O)s1` [Example 106], the EC50 is under 10 µM.

Molecule `CN1CCN(C(=O)c2cnc(-c3cc4ccc(O)c(C=O)c4oc3=O)s2)CC1` [Example 107] yielded an EC50 of under 10 µM.

Molecule `Cc1nc(-c2cc3ccc(O)c(C=O)c3oc2=O)sc1C(=O)N1CCN(C)CC1` [Example 108] gave an EC50 of under 10 µM.

In turn, `Cc1nc(-c2cc3ccc(O)c(C=O)c3oc2=O)sc1C(=O)NCCN1CCOCC1` [Example 109] displayed an EC50 of under 10 µM.

Regarding `Cc1nc(-c2c(C)c3ccc(O)c(C=O)c3oc2=O)sc1C(=O)N1CCN(C)CC1` [Example 110], the EC50 was under 10 µM.

In turn, `COc1cc2c(C)c(-c3ccc(C(=O)N4CCN(C)CC4)cc3)c(=O)oc2c(C=O)c1O` [Example 111] returned a concentration for a half-maximal effect (EC50) of under 10 µM.

On to `Cc1c(/C=C/C(=O)N2CCN(C)CC2)c(=O)oc2c(C=O)c(O)ccc12` [Example 112], for which the EC50 is under 10 µM.

In turn, `COc1cc2c(C)c(-c3ccc(N4CCN(C)CC4)nc3)c(=O)oc2c(C=O)c1O` [Example 113] registered an EC50 of under 10 µM.

`COc1cc2c(C)c(-c3ccc(N4CCOCC4)nc3)c(=O)oc2c(C=O)c1O` [Example 114] had an EC50 of under 10 µM.

The molecule `COc1cc2c(C)c(-c3ccc(N(C)C)nc3)c(=O)oc2c(C=O)c1O` [Example 115] had an EC50 of under 10 µM.

`[2H]C(=O)c1c(O)ccc2c(C)c(-c3ccc(C(=O)NCCN4CCOCC4)cc3)c(=O)oc12` [Example 116] gave a concentration for a half-maximal effect (EC50) of under 10 µM.

As for `CCc1cc2c(C)c(-c3ccc(C(=O)NCCN4CCOCC4)cc3)c(=O)oc2c(C=O)c1O` [Example 117], the EC50 is under 10 µM.

The molecule `CCc1cc2c(C)c(-c3ccc(C(=O)NCCOC)cc3)c(=O)oc2c(C=O)c1O` [Example 118] had a 50% effective concentration (EC50) of under 10 µM.

The molecule `CCc1cc2c(C)c(-c3ccc(C(=O)N4CCOCC4)cc3)c(=O)oc2c(C=O)c1O` [Example 119] displayed an EC50 of over 10 µM.

`COc1cc(O)c(C=O)c2oc(=O)cc(C)c12` [Example 120] came in with an EC50 of under 10 µM.

`COCCOc1cc(O)c(C=O)c2oc(=O)cc(C)c12` [Example 121] registered an EC50 of under 10 µM.

Regarding `COCc1cc(=O)oc2c(C=O)c(O)cc(OC)c12` [Example 122], the EC50 is under 10 µM.

Regarding `COCCc1c(C)c2c(O)cc(O)c(C=O)c2oc1=O` [Example 123], the EC50 is under 10 µM.

In turn, `COCCc1c(C)c2c(OC)cc(O)c(C=O)c2oc1=O` [Example 124] yielded an EC50 of under 10 µM.

In the case of `COCCc1c(C)c2cc(OC)c(O)c(C=O)c2oc1=O` [Example 125], the EC50 was under 10 µM.

In turn, `C=CCc1c(C)c2c(OC)cc(O)c(C=O)c2oc1=O` [Example 126] gave an EC50 of under 10 µM.

`COCCOCCc1c(C)c2cc(OC)c(O)c(C=O)c2oc1=O` [Example 127] came in with an EC50 of under 10 µM.

As to `Cc1c(CC(=O)N2CCOCC2)c(=O)oc2c(C=O)c(O)ccc12` [Example 129], the concentration giving a half-maximal response (EC50) was under 10 µM.

`Cc1c(CC(=O)N2CCN(C)CC2)c(=O)oc2c(C=O)c(O)ccc12` [Example 130] had a 50% effective concentration (EC50) of under 10 µM.

Molecule `CCOC(=O)Cc1c(C)c2cc(OC)c(O)c(C=O)c2oc1=O` [Example 131] came in with a half-maximal effective concentration (EC50) of under 10 µM.

One may read the EC50 as the midpoint of the concentration-response curve. A lower EC50 goes with an effect from little substance.
